Test results taken from ChEMBL document CHEMBL1201862, “PubChem BioAssay data set” (2004).
Values belong to the molecule of their own block, whether it stands above or below them. Active and inactive are the calls of the source.

Experiments:
Format in all cases: functional
[1] = biological target: 26S proteasome non-ATPase regulatory subunit 14 (Homo sapiens, UniProt O00487); test: inhibition of proteasome subunit RPN11 – biochemical, fluorescence polarization, uHTS hits, confirmation (AID 602368)
Chain of 26S proteasome non-ATPase regulatory subunit 14 (O00487 whole entry): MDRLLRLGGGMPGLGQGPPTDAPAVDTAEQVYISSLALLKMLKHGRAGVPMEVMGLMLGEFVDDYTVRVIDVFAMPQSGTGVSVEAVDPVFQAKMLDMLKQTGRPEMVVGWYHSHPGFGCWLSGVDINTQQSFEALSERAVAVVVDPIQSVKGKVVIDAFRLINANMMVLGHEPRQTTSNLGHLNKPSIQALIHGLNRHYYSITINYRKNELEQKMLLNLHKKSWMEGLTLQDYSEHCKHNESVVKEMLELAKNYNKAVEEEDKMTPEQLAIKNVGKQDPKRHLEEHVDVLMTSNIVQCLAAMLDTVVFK

[2] = biological target: 72 kDa type IV collagenase (Homo sapiens, UniProt P08253); test: Dose Response validation of uHTS RPN11 inhibitor hits using a MMP-2 Fluorescence assay.
Chain of 72 kDa type IV collagenase (P08253 whole entry): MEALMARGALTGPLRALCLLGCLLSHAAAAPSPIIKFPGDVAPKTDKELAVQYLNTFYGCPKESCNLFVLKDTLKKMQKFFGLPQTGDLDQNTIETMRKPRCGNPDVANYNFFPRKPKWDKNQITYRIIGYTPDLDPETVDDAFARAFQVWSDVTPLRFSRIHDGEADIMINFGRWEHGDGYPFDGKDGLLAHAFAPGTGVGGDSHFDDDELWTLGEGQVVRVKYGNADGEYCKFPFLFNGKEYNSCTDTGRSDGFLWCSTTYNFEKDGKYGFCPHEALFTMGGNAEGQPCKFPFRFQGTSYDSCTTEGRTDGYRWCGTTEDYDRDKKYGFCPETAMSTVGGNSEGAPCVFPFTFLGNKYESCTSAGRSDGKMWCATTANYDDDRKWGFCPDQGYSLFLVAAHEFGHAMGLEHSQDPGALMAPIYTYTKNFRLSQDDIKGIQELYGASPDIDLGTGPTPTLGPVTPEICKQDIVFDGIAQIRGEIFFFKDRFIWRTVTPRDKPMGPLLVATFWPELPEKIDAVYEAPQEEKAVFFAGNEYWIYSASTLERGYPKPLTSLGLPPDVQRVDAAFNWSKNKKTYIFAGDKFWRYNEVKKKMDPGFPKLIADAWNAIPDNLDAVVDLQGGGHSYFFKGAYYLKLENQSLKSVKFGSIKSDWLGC

Prothrombin = Prothrombin (Bos taurus, UniProt P00735); test: thrombin inhibition, dose response, biochemical, fluorescence polarization, uHTS hits (AID 602369)
[3] = biological target: Melanin-concentrating hormone receptor 1 (Homo sapiens, UniProt Q99705); test: Late-stage fluorescence-based counterscreen for antagonists of the G-protein coupled receptor 7 (GPR7): cell-based dose response assay to identify antagonists of the melanin-concentrating hormone receptor 1 (MCHR1) Set 6.
Chain of Melanin-concentrating hormone receptor 1 (Q99705 whole entry): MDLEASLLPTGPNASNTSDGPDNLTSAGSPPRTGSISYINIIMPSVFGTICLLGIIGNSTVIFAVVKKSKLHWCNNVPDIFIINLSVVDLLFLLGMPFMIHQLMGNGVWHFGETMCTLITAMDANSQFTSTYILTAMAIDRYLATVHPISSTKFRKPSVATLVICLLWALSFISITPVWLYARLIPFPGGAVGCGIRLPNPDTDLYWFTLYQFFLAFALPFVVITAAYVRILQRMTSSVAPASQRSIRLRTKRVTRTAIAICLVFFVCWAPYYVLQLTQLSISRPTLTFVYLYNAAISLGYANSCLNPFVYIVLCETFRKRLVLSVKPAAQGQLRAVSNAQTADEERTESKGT

Melanocortin receptor 4 = Melanocortin receptor 4 (Homo sapiens, UniProt P32245); test: MC4R antagonist potency on cAMP, dose response, cell-based, TR-FRET, biased antagonists (AID 602298);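 note: antagonist potency against agonist-stimulated cAMP production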
Chain of Melanocortin receptor 4 (P32245 whole entry): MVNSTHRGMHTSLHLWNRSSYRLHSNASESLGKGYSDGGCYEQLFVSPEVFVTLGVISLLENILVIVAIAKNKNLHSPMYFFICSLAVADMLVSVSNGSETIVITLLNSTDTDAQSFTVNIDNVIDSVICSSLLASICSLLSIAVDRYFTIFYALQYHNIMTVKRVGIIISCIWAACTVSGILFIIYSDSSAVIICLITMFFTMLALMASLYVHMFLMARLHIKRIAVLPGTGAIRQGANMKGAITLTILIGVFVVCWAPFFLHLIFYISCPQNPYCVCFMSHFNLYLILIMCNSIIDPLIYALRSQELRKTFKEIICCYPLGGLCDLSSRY

[4] = nonselective inhibitors of cellular cAMP signaling, dose response, counter-screen for MC4R biased antagonist project, cell-based, TR-FRET cAMP detection (AID 602305);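 note: U2OS cells stimulated with forskolin near its EC80 as the cAMP inducer; potency is for inhibition of forskolin-stimulated cAMP signaling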
[5] = SAR analysis of small molecule activators of Apaf-1 using a LZ-Caspase-9/Caspase-3 Fluorescent Selectivity assay - Set 2.; conditions: read-out: EC50_Mean
[6] = biological target: T1, Apoptotic protease-activating factor 1 (Homo sapiens, UniProt O14727); test: SAR analysis of small molecule Activators of Apaf-1 in a Fluorescent assay - set 2.; conditions: read-out: EC50_Mean
T1 sequence (O14727 whole entry): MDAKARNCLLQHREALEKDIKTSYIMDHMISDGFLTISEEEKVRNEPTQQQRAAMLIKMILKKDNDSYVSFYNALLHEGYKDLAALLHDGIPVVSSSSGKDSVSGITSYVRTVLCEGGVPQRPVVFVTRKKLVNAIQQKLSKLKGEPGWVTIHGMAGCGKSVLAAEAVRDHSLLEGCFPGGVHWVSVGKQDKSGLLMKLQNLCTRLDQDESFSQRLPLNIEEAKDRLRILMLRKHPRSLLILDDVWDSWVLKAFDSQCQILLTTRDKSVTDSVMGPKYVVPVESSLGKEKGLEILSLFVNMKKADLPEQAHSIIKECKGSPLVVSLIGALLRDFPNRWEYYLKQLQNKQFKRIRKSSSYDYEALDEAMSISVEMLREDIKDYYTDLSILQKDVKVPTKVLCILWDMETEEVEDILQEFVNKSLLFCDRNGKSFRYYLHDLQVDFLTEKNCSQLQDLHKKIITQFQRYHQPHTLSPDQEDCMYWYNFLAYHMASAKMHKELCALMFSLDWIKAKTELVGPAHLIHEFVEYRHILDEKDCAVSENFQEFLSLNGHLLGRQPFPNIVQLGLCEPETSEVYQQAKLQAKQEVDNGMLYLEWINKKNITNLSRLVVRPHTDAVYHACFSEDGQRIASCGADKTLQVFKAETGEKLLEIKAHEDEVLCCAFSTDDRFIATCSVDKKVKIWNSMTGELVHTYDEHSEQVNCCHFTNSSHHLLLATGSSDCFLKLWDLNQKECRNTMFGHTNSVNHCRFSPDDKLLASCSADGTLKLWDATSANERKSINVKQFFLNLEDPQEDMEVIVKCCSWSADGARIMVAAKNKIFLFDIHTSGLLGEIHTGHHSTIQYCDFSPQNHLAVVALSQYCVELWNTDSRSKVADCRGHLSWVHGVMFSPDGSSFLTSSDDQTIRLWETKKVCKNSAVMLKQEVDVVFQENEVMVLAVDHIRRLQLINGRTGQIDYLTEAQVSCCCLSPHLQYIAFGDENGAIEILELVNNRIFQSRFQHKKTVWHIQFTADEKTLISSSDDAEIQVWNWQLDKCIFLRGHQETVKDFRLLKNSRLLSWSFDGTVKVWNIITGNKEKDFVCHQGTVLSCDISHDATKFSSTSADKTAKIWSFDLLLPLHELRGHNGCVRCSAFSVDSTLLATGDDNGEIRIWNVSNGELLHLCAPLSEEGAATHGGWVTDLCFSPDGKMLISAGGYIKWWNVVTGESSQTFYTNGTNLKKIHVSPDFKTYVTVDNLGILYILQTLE

IC50 [1]: 0.658 µM (active)
IC50 [2]: > 100 µM (inactive)
IC50 (Prothrombin): 0.564 µM (active)
Compound: O=[N+]([O-])c1ccc(N/N=C/c2sc(N3CCOCC3)nc2-c2ccccc2)c(S(=O)(=O)Nc2ccccc2Cl)c1

IC50 [3]: 1.16 µM (active)
Compound: COC(=O)c1ccccc1Cn1ncc(Cl)c(Oc2ccc(OC)cc2)c1=O

Compound: CC(=O)Oc1ccc2nc(-c3ccc(Br)o3)oc(=O)c2c1
IC50 (Melanocortin receptor 4): > 64.6 µM (inactive)
IC50 [4]: > 64.6 µM (inactive)

EC50 [5]: > 100 µM (inactive)
EC50 [6]: > 100 µM (inactive)
Compound: COc1ccc(OC)c(C2=NOC(C(=O)O)C2)c1 (stereo not drawn)
